For one data set, the target named is T1, IRAK4 (Homo sapiens, UniProt Q9NWZ3).
T1 construct: His (N); TEV cleavage site (N)
T1 sequence (Q9NWZ3 1-460): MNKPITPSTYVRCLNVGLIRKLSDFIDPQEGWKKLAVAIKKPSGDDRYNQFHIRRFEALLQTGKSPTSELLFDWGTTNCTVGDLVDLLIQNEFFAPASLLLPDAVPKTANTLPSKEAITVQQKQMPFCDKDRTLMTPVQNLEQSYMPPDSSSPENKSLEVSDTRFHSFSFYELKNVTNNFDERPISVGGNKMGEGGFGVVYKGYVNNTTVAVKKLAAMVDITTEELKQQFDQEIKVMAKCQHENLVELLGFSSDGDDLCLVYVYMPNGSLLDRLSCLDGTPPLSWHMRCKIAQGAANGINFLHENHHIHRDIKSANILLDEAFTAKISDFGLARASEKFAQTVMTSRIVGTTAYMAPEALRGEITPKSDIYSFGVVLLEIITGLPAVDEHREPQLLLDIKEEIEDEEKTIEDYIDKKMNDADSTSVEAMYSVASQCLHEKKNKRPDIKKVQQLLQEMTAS
The data set is described as follows: IRAK4 Enzymatic Assay. It is filed as biochemical. As to conditions: His-TEV-IRAK4 20 ng/well, ATP 2 μM, STK1-biotin peptide 300 nM, 3 hours at 30° C., FlashPlate radioactivity. A digest of the protocol:
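Radiometric FlashPlate readout: biotin-STK1 substrate (300 nM) captured on streptavidin after EDTA stop and washes. Reaction used His-TEV-IRAK4 (20 ng/well), 2 μM [^33P]-spiked ATP and compound (1 nM-20 μM), incubated 3 h at 30 °C in 50 mM HEPES pH 7.0, 10 mM MgCl2, 5 mM MnCl2, 2 mM DTT.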

Each structure is given as a SMILES string.

As a reminder, the melting point is the temperature, or range, at which the solid turns liquid. As usually defined, the IC50 is the concentration at which inhibition is half-maximal. `Cn1cc(-c2cccc(-c3ncc(-c4cnn(C5CCS(=O)(=O)C5)c4)cn3)c2)cn1` (stereo not drawn) [Example 219, 5-[1-(1,1-Dioxo-tetrahydro-1lambda6-thiophen-3-yl)-1H-pyrazol-4-yl]-2-[3-(1-methyl-1H-pyrazol-4-yl)-phenyl]-pyrimidine] showed a melting point of 247 to 250 °C. The IC50 at IRAK4 lay in the range of 100 to 1000 nM.
For `Cn1cc(-c2cccc(-c3ncc(-c4cnn([C@H]5CC[C@@]6(CC5)CNC(=O)C6)c4)cn3)c2)cn1` [Example 286, trans-8-(4-{2-[3-(1-Methyl-1H-pyrazol-4-yl)-phenyl]-pyrimidin-5-yl}-pyrazol-1-yl)-2-aza-spiro[4.5]decan-3-one] the same measures were 255 to 258.7 °C and less than 100 nM.
The corresponding values for `Cn1cc(-c2cccc(-c3ncc(-c4cnn([C@H]5CC[C@]6(CC5)CNC(=O)C6)c4)cn3)c2)cn1` [Example 287, cis-8-(4-(2-(3-(1-methyl-1H-pyrazol-4-yl)phenyl)pyrimidin-5-yl)-1H-pyrazol-1-yl)-2-azaspiro[4.5]decan-3-one] are 262 to 265.8 °C and less than 100 nM.
